According to US20250214999A1, “HETEROCYCLIC GLP-1 AGONISTS” (Gasherbrum Bio, Inc., priority 2020, published 2025):

Assays:
[1] = target: GLP-1 Receptor (Homo sapiens (Human), UniProt P43220); assay: GLP-1R agonist cAMP stimulation assay (HEK293/GLP1R/CRE-LUC cells); assay type: cell-based; conditions: 30 min incubation, read-out: GLP1R cAMP Stimulation DR: EC50
Method: Activation of GLP-1 receptor is known to stimulate cyclic AMP (cAMP) production in cells which indicates primary coupling to the Gαs subunit of the G protein heterotrimeric complex.
To optimize functional activity directed toward Gαs coupling, a HEK293/CRELuc cell line developed by HDB stably expressing the GLP-1 Receptor was used. 200× concentration of compound working solutions were prepared (Agilent Technologies Bravo) with 1/2 log serial dilution in 384-well Echo LDV plate (Labcyte, Cat #LP-0200). 50 nL/well 200× concentration of compound working solutions were moved to 384-well white low volume plate (Greiner, Cat #784075) using Labcyte ECHO550. 1×10^5 cells/mL HEK293/GLP1R/CRE-LUC (HD Biosciences) cell suspensions prepared with assay buffer [DPBS containing 0.5 mM IBMX (Sigma,Cat #I5879) and 0.1% BSA (GENVIEW, Cat #FA016-100 g)], 10 uL cell suspensions were added to each well of previous generated assay plate which already contains 50 nl compound at 200× concentration using ThermoFisher Multidrop Combi (1000cells/well). Seal the plate and incubate at 37° C. with 5% CO2 for 30 min.
After incubation the CAMP assay signal was generated using cAMP dynamic 2 Kit (Cisbio). 5 μL cAMP-d2 working solution was added to each well, followed with 5 μL Anti-cAMP antibody-cryptate working solution added to each well using ThermoFisher Multidrop Combi. Incubate at room temperature for 1 hour protected from light. Read the fluorescence at 665 and 615 nm with Reader PerkinElmer En Vision.

[2] = Nonhuman primate (NHP) pharmacokinetics (PK) study; assay type: in vivo, cynomolgus monkey; conditions: male NHP
Method: Pharmacokinetics (PK) study was conducted on male NHP (e.g. cynomolgus monkey) by two delivery routes intravenous (IV) and/or oral gavage (PO). NHP in IV route (n=3) were free access to food and water. NHP in PO route (n=3) were fasted overnight and fed at 4 hrs post dosing. Test article was formulated in solution for IV route and solution or suspension for PO route, respectively.
On the day of experiment, test article was administered via vein (e.g. cephalic vein) injection (commonly at 0.2 to 1 mg/kg and 1 to 2 mL/kg) for IV route or via oral gavage (commonly at 1 to 100 mg/kg and 2 to 10 mL/kg) for PO route, respectively.
Blood samples were collected via serial bleeding at ˜8 time points from 0.083 to 24 hours post dose. Approximate 500 μL of blood/time point was collected into EDTA-K2 tube via cephalic or saphenous vein. Blood samples were put on wet ice and centrifuged to obtain plasma samples and plasma samples were submitted to LCMS/MS for sample analysis.
Pharmacokinetics parameters, including maximum plasma concentration (Cmax), time to reach maximum plasma concentration (Tmax), area under the curve (AUC0-4) and oral bioavailability (F%), etc., were calculated by non-compartmental model using WinNonlin.
Exemplary compounds of Formula I (e.g., certain compounds of Formula IB (e.g., Formula IB-1)) were tested using the protocol above. Reference compound REF1 was tested as a control compound.

Sequence of GLP-1 Receptor (P43220 24-463): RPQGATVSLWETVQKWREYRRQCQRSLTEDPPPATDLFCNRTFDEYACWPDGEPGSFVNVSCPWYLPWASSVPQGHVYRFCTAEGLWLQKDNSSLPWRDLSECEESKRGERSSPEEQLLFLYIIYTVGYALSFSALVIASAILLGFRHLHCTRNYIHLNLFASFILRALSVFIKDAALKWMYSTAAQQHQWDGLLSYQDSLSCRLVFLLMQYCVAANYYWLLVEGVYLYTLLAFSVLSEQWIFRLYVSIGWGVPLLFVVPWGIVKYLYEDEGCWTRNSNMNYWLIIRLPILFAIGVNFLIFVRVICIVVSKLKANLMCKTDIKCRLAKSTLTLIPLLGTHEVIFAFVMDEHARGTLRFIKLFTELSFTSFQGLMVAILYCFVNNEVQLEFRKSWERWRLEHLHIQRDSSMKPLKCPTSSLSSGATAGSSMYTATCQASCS

SMILES	EC50 [1]	Tmax ([2]; cynomolgus monkey, plasma, 1 mg/kg, oral (PO), Dose 1)	bioavailability ([2]; cynomolgus monkey, plasma, oral bioavailability)	AUC0-24 h ([2]; oral (PO), Dose 1)	Cmax ([2]; oral (PO), Dose 1)
CC1(c2ccc(Cl)cc2)COc2c(cccc2C2CCN(Cc3nc4ccc(C(=O)O)nc4n3C[C@@H]3CCO3)CC2)O1 (stereo partly drawn) [Compound 128a, 2-((4-(2-(4-chlorophenyl)-2-methyl-2,3-dihydrobenzo[b][1,4]dioxin-5-yl)piperidin-1-yl)methyl)-3-((S)-oxetan-2-ylmethyl)-3H-imidazo[4,5-b]pyridine-5-carboxylic acid]	0.2 to 20 nM	–	–	–	–
N#Cc1ccc([C@@H]2COc3c(cccc3C3CCN(Cc4nc5ccc(C(=O)O)cc5n4C[C@@H]4CCO4)CC3)O2)cc1 [Compound 129a, 2-((4-((R)-2-(4-Cyanophenyl)-2,3-dihydrobenzo[b][1,4]dioxin-5-yl)piperidin-1-yl)methyl)-1-(((S)-oxetan-2-yl)methyl)-1H-benzo[d]imidazole-6-carboxylic acid]	≤ 0.2 nM	–	–	–	–
O=C(O)c1ccc2nc(CN3CCC(c4cccc5c4OC(c4ccc(Cl)cc4F)CO5)CC3)n(C[C@@H]3CCO3)c2n1 (stereo partly drawn) [Compound 130a, 2-((4-(3-(4-chloro-2-fluorophenyl)-2,3-dihydrobenzo[b][1,4]dioxin-5-yl)piperidin-1-yl)methyl)-3-(((S)-oxetan-2-yl)methyl)-3H-imidazo[4,5-b]pyridine-5-carboxylic acid]	≤ 0.2 nM	–	–	–	–
N#Cc1ccc(COc2cccc(C3CCN(Cc4nc5ccc(C(=O)O)cc5n4C[C@@H]4CCO4)CC3)n2)c(F)c1 [REF1]	–	5.33 h	3.14%	362 arbitrary unit	36.0 arbitrary unit
